Assay results: publication PMC10023787, “Trio-pharmacophore DNA-encoded chemical library for simultaneous selection of fragments and linkers” (Nature Communications, 2023)
Blank lines part the entries; values can stand above or below the molecule they belong to.

Columns and labels:
MMP-9 = target: T1, MMP-9 (Homo sapiens, UniProt P14780); experiment: MMP-9 inhibition assay (fluorogenic peptide substrate); type: biochemical; parameters: remaining enzyme activity (% of control): scale not given here; details: for IC50: mean ± SE, n.d: not detected, Fig. 5e prints no unit, µM, read-out: IC50
T1 construct: purchased Sino Biological 10327-HNAH
T1 sequence (P14780 107-707 limits assumed): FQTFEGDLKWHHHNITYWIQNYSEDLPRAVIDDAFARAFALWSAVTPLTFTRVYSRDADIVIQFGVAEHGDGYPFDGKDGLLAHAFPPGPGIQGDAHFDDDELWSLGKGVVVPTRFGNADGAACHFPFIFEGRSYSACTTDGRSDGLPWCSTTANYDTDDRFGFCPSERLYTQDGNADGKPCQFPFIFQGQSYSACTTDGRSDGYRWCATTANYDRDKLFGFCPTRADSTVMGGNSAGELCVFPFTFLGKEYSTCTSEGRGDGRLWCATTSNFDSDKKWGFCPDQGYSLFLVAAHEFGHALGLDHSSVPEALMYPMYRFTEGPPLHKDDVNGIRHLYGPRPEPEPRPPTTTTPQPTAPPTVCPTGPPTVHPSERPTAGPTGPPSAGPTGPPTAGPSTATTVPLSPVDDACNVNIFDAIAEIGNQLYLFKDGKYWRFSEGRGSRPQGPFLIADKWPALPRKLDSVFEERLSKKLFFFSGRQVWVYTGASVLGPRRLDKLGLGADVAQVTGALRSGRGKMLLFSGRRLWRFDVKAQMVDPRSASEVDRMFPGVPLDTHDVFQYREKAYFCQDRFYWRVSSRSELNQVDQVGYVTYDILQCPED
Outline: (§1)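 Human proMMP-2 and proMMP-9 were activated with 1 mM APMA (37 °C, 2 h), then used at 6.5 nM (MMP-2) or 10 nM (MMP-9) in Tris/NaCl/CaCl2/Brij 35 buffer, pH 7.5. Enzyme was preincubated with compound 30 min at RT; 25 μM DNP-Pro-Leu-Gly-Met-Trp-Ser-Arg substrate was added and fluorescence (ex 280/em 360 nm) followed 30 min. IC50 from logistic fits of Vmax.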

MMP-2 = target: T2, MMP-2 (Homo sapiens, UniProt P08253); experiment: MMP-2 inhibition assay (fluorogenic peptide substrate); type: biochemical; details: for IC50: mean ± SE, n.d: not detected, Fig. 5d unit inferred, µM, read-out: IC50
T2 construct: purchased Sino Biological 10082-HNAH
T2 sequence (P08253 110-660): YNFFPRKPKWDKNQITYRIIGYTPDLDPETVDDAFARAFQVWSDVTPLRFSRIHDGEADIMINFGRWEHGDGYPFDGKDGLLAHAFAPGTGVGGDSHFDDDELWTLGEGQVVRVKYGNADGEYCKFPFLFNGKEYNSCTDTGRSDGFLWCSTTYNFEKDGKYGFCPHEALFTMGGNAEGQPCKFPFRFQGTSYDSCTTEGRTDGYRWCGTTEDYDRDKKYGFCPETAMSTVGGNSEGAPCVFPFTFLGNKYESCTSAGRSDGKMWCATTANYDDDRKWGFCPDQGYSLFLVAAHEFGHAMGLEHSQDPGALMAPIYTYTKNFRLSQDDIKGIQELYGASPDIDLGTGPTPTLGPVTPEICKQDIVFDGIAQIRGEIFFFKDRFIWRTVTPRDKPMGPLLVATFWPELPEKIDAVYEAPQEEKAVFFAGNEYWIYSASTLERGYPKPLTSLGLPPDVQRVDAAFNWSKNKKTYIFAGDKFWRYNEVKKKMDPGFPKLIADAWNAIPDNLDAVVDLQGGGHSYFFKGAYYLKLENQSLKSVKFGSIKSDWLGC
Outline: as §1

SMILES: Cn1c(O)nc2cc(C(=O)NCCCCC=CC(=O)CC(=O)NCCNC(=O)Cn3cnc4c(oc5ccccc54)c3=O)cnc21 [182+826 Linker 12]
remaining enzyme activity (% of control) (MMP-9; MMP-9, concentration 0.12 µM): 93.35 | remaining enzyme activity (% of control) (MMP-9; MMP-9, concentration 0.49 µM): 105.08 | remaining enzyme activity (% of control) (MMP-9; MMP-9, concentration 1.95 µM): 88.98 | remaining enzyme activity (% of control) (MMP-9; MMP-9, concentration 7.81 µM): 94.00 | remaining enzyme activity (% of control) (MMP-9; MMP-9, concentration 31.25 µM): 85.67 | remaining enzyme activity (% of control) (MMP-9; MMP-9, concentration 125.00 µM): 51.95 | remaining enzyme activity (% of control) (MMP-9; MMP-9, concentration 500.00 µM): 12.28 | IC50 (MMP-9): 131 ± 24.2 µM | remaining activity (%) (MMP-2; MMP-2, concentration 0.13 µM): 97.62 | remaining activity (%) (MMP-2; MMP-2, concentration 0.50 µM): 96.92 | remaining activity (%) (MMP-2; MMP-2, concentration 2.01 µM): 91.66 | remaining activity (%) (MMP-2; MMP-2, concentration 8.03 µM): 85.01 | remaining activity (%) (MMP-2; MMP-2, concentration 128.50 µM): 28.27 | remaining activity (%) (MMP-2; MMP-2, concentration 514.00 µM): 12.65 | IC50 (MMP-2): 62.3 ± 14 µM

SMILES: O=C(Cn1cnc2c(oc3ccccc32)c1=O)NCCCCCCCCNC(=O)c1cncc(O)c1 [182+828 Linker 4]
remaining enzyme activity (% of control) (MMP-9; MMP-9, concentration 0.08 µM): 90.17 | remaining enzyme activity (% of control) (MMP-9; MMP-9, concentration 0.39 µM): 88.39 | remaining enzyme activity (% of control) (MMP-9; MMP-9, concentration 1.95 µM): 91.84 | remaining enzyme activity (% of control) (MMP-9; MMP-9, concentration 9.75 µM): 88.91 | remaining enzyme activity (% of control) (MMP-9; MMP-9, concentration 48.76 µM): 78.10 | remaining enzyme activity (% of control) (MMP-9; MMP-9, concentration 243.80 µM): 49.14 | remaining enzyme activity (% of control) (MMP-9; MMP-9, concentration 1219.00 µM): 0.00 | IC50 (MMP-9): 233 ± 38.3 µM | remaining activity (%) (MMP-2; MMP-2, concentration 0.0078 µM): 107.56 | remaining activity (%) (MMP-2; MMP-2, concentration 0.20 µM): 99.59 | remaining activity (%) (MMP-2; MMP-2, concentration 0.98 µM): 97.94 | remaining activity (%) (MMP-2; MMP-2, concentration 4.88 µM): 101.19 | remaining activity (%) (MMP-2; MMP-2, concentration 24.38 µM): 85.36 | remaining activity (%) (MMP-2; MMP-2, concentration 121.90 µM): 64.62 | remaining activity (%) (MMP-2; MMP-2, concentration 609.50 µM): 31.91 | remaining activity (%) (MMP-2; MMP-2, concentration 0.04 µM): 116.92 | IC50 (MMP-2): 188 ± 25.7 µM

SMILES: O=C(Cn1cnc2c(oc3ccccc32)c1=O)NCCOCCOCCNC(=O)c1cncc(O)c1 [182+828 Linker 10]
remaining enzyme activity (% of control) (MMP-9; MMP-9, concentration 0.06 µM): 97.14 | remaining enzyme activity (% of control) (MMP-9; MMP-9, concentration 0.29 µM): 97.22 | remaining enzyme activity (% of control) (MMP-9; MMP-9, concentration 1.46 µM): 90.75 | remaining enzyme activity (% of control) (MMP-9; MMP-9, concentration 7.32 µM): 93.96 | remaining enzyme activity (% of control) (MMP-9; MMP-9, concentration 36.60 µM): 74.71 | remaining enzyme activity (% of control) (MMP-9; MMP-9, concentration 183.00 µM): 29.12 | remaining enzyme activity (% of control) (MMP-9; MMP-9, concentration 915.00 µM): 0.00 | IC50 (MMP-9): 99.6 ± 31.7 µM | remaining activity (%) (MMP-2; MMP-2, concentration 0.0117 µM): 98.76 | remaining activity (%) (MMP-2; MMP-2, concentration 0.06 µM): 98.75 | remaining activity (%) (MMP-2; MMP-2, concentration 0.29 µM): 92.92 | remaining activity (%) (MMP-2; MMP-2, concentration 1.46 µM): 80.34 | remaining activity (%) (MMP-2; MMP-2, concentration 7.32 µM): 73.36 | remaining activity (%) (MMP-2; MMP-2, concentration 36.60 µM): 63.34 | remaining activity (%) (MMP-2; MMP-2, concentration 183.00 µM): 14.49 | remaining activity (%) (MMP-2; MMP-2, concentration 915.00 µM): 0.00 | IC50 (MMP-2): 43 ± 19.3 µM

Next, values leading:

remaining enzyme activity (% of control) (MMP-9; MMP-9, concentration 0.13 µM): 96.35 | remaining enzyme activity (% of control) (MMP-9; MMP-9, concentration 0.50 µM): 93.10 | remaining enzyme activity (% of control) (MMP-9; MMP-9, concentration 2.01 µM): 95.02 | remaining enzyme activity (% of control) (MMP-9; MMP-9, concentration 8.03 µM): 95.39 | remaining enzyme activity (% of control) (MMP-9; MMP-9, concentration 128.50 µM): 75.89 | remaining enzyme activity (% of control) (MMP-9; MMP-9, concentration 514.00 µM): 61.85 | remaining activity (%) (MMP-2; MMP-2, concentration 0.12 µM): 92.61 | remaining activity (%) (MMP-2; MMP-2, concentration 0.49 µM): 95.31 | remaining activity (%) (MMP-2; MMP-2, concentration 1.95 µM): 84.32 | remaining activity (%) (MMP-2; MMP-2, concentration 7.81 µM): 92.35 | remaining activity (%) (MMP-2; MMP-2, concentration 31.25 µM): 84.58 | remaining activity (%) (MMP-2; MMP-2, concentration 125.00 µM): 82.25 | remaining activity (%) (MMP-2; MMP-2, concentration 500.00 µM): 42.45 | IC50 (MMP-2): 439 ± 56.5 µM
SMILES: Cn1c(O)nc2cc(C(=O)NCCCCCCCCNC(=O)Cn3cnc4c(oc5ccccc54)c3=O)cnc21 [182+826 Linker 4]

remaining enzyme activity (% of control) (MMP-9; MMP-9, concentration 0.12 µM): 94.26 | remaining enzyme activity (% of control) (MMP-9; MMP-9, concentration 0.49 µM): 94.53 | remaining enzyme activity (% of control) (MMP-9; MMP-9, concentration 1.95 µM): 79.71 | remaining enzyme activity (% of control) (MMP-9; MMP-9, concentration 7.81 µM): 87.21 | remaining enzyme activity (% of control) (MMP-9; MMP-9, concentration 31.25 µM): 75.62 | remaining enzyme activity (% of control) (MMP-9; MMP-9, concentration 125.00 µM): 66.17 | remaining enzyme activity (% of control) (MMP-9; MMP-9, concentration 500.00 µM): 43.49 | IC50 (MMP-9): 283 ± 84.3 µM | remaining activity (%) (MMP-2; MMP-2, concentration 0.12 µM): 104.96 | remaining activity (%) (MMP-2; MMP-2, concentration 0.49 µM): 102.80 | remaining activity (%) (MMP-2; MMP-2, concentration 1.95 µM): 96.45 | remaining activity (%) (MMP-2; MMP-2, concentration 7.81 µM): 96.46 | remaining activity (%) (MMP-2; MMP-2, concentration 31.25 µM): 89.20 | remaining activity (%) (MMP-2; MMP-2, concentration 125.00 µM): 71.67 | remaining activity (%) (MMP-2; MMP-2, concentration 500.00 µM): 58.28
SMILES: Cn1c(O)nc2cc(C(=O)NCCOCCOCCNC(=O)Cn3cnc4c(oc5ccccc54)c3=O)cnc21 [182+826 Linker 10]

remaining enzyme activity (% of control) (MMP-9; MMP-9, concentration 0.09 µM): 91.31 | remaining enzyme activity (% of control) (MMP-9; MMP-9, concentration 0.36 µM): 105.17 | remaining enzyme activity (% of control) (MMP-9; MMP-9, concentration 1.46 µM): 94.51 | remaining enzyme activity (% of control) (MMP-9; MMP-9, concentration 5.83 µM): 85.81 | remaining enzyme activity (% of control) (MMP-9; MMP-9, concentration 23.31 µM): 80.00 | remaining enzyme activity (% of control) (MMP-9; MMP-9, concentration 93.25 µM): 70.35 | remaining enzyme activity (% of control) (MMP-9; MMP-9, concentration 373.00 µM): 44.33 | IC50 (MMP-9): 281 ± 97.2 µM | remaining activity (%) (MMP-2; MMP-2, concentration 0.09 µM): 97.26 | remaining activity (%) (MMP-2; MMP-2, concentration 0.36 µM): 110.41 | remaining activity (%) (MMP-2; MMP-2, concentration 1.46 µM): 108.70 | remaining activity (%) (MMP-2; MMP-2, concentration 5.83 µM): 101.42 | remaining activity (%) (MMP-2; MMP-2, concentration 23.31 µM): 109.20 | remaining activity (%) (MMP-2; MMP-2, concentration 93.25 µM): 102.62 | remaining activity (%) (MMP-2; MMP-2, concentration 373.00 µM): 72.08
SMILES: Cn1c(O)nc2cc(C(=O)NCCNC(=O)CSCCNC(=O)Cn3cnc4c(oc5ccccc54)c3=O)cnc21 [182+826 Linker 24]

remaining enzyme activity (% of control) (MMP-9; MMP-9, concentration 0.08 µM): 88.36 | remaining enzyme activity (% of control) (MMP-9; MMP-9, concentration 0.42 µM): 92.30 | remaining enzyme activity (% of control) (MMP-9; MMP-9, concentration 2.10 µM): 86.01 | remaining enzyme activity (% of control) (MMP-9; MMP-9, concentration 10.52 µM): 90.65 | remaining enzyme activity (% of control) (MMP-9; MMP-9, concentration 52.60 µM): 56.79 | remaining enzyme activity (% of control) (MMP-9; MMP-9, concentration 263.00 µM): 22.31 | remaining enzyme activity (% of control) (MMP-9; MMP-9, concentration 1315.00 µM): 0.00 | IC50 (MMP-9): 92.1 ± 28.2 µM | remaining activity (%) (MMP-2; MMP-2, concentration 0.00933 µM): 100.18 | remaining activity (%) (MMP-2; MMP-2, concentration 0.0466 µM): 86.28 | remaining activity (%) (MMP-2; MMP-2, concentration 0.23 µM): 84.03 | remaining activity (%) (MMP-2; MMP-2, concentration 5.83 µM): 81.34 | remaining activity (%) (MMP-2; MMP-2, concentration 29.14 µM): 67.66 | remaining activity (%) (MMP-2; MMP-2, concentration 145.72 µM): 34.11 | remaining activity (%) (MMP-2; MMP-2, concentration 728.60 µM): 8.96 | IC50 (MMP-2): 77.1 ± 10 µM
SMILES: O=C(Cn1cnc2c(oc3ccccc32)c1=O)NCCNC(=O)c1cncc(O)c1 [182+828 Linker 1]
